From patent US10036018B2, “Compositions and methods for treating cachexia” (priority 2014, dated 2018)

Experiments:
C2C12 myoblasts = test: Trypan blue cell death of C2C12 cells treated with cytokines; format: cell-based, murine; conditions: C2C12, 24 h, cytokines at 5 ng/mL
Description: FIG. 5C is a graph depicting cell death assessed by trypan blue dye staining performed on C2C12 cells that were treated for 24 h with individual cytokines or a mixture (Cocktail) of IL-1, IL-6, TNFα, and IFNγ (all at 5 ng/mL). As a negative control, cells were treated with serum-free medium.
Trypan Blue Staining. Trypan blue dye was purchased from Gibco (15250-061), and staining was performed following the manufacturer's protocol. Dead cells are blue in color under the microscope and were counted using a hemocytometer.

phospho-c-jun = test: Western blot of treated C2C12 extracts, phospho-c-jun; format: cell-based, murine; conditions: proliferating myoblasts, Western blot time course
Description: (§1) FIG. 9B is an image of a Western blot on extracts of C2C12 cells that had been treated with either LLC-derived MVs (Upper) or synthetic miR-21 (Lower, using miR-16 as control), which were probed with antibodies against phospho-JNK, phospho-c-jun, and phospho-p38 at different times, as indicated.
(§2) Western Blot. Western blots were performed as previously described (2). Antibodies used and their dilutions are listed: p-JNK (Cell Signaling Technology, 1:2,000), p-c-Jun (Cell Signaling Technology, 1:1,000), p-p38 (Cell Signaling Technology, 1:2,000), and vinculin (Abeam, 1:3,000).

[1] = tested on: TLR7+/+ primary myoblasts; test: Cell viability (cell counter) of TLR7+/+ primary myoblasts treated with Dotap formulations of miRNAs; format: cell-based, mice; conditions: Dotap formulation, 24 h
Description: (§3) FIG. 4A is a graph depicting cell viability assessed with a cell counter for TLR7+/+ and TLR7−/− primary myoblasts that were treated with Dotap formulations of miR-16 and miR-21 for 24 h. As negative control, cells were incubated with Dotap alone. Experiments were performed in quadruplicate. Results are presented as average±SEM. *P≤0.05; **P≤0.01; ***P≤0.001.
(§4) MV Treatment. C2C12 immortalized myoblasts or primary myoblasts isolated from mice were treated with MVs at indicated times. Cell numbers of myoblasts were counted on a hemocytometer.
(§5) Myoblast Isolation and Culture. Primary myoblasts were isolated as previously described (2) and preplated twice, using noncoated tissue culture dishes, and then cultured either on a matrigelcoated 96-well plate for MTS assay reading at indicated times or on a matrigel-coated 12-well plate for protein and RNA analysis.

phospho-JNK = test: Western blot of treated C2C12 extracts, phospho-JNK; format: cell-based, murine; conditions: proliferating myoblasts, Western blot time course
Description: as §1, §2

phospho-p38 = test: Western blot of treated C2C12 extracts, phospho-p38; format: cell-based, murine; conditions: proliferating myoblasts, Western blot time course
Description: as §1, §2

[2] = tested on: TLR7−/− primary myoblasts; test: Cell viability (cell counter) of TLR7-/- primary myoblasts treated with Dotap formulations of miRNAs; format: cell-based, mice; conditions: Dotap formulation, 24 h
Description: as §3, §4, §5
Mice. Cachexia in the LLC model were induced as previously described (2). TLR7−/− mice were obtained from Jackson Laboratory. Wild-type C57B6 male mice at the same age and weight were used as TLR7+/+ controls. All genotypes were determined by PCR, using tail DNA. All procedures used in this study complied with federal guidelines and the institutional policies of the Ohio State University Animal Care and Use Committee.

IFN-γ: proinflammatory cytokine was tested, and the “effect on the viability of proliferating murine C2C12 myoblasts” value (“effect on the viability” below) (C2C12 myoblasts) was “little or no effect”.

With IL-1β: proinflammatory cytokine the “effect on the viability” value (C2C12 myoblasts) was “little or no effect”.

With IL-6: proinflammatory cytokine the “effect on the viability” value (C2C12 myoblasts) was “little or no effect”.

For TNFα, the “effect on the viability” value (C2C12 myoblasts) was “little or no effect”.

With UAGCUUAUCAGACUGAUGUUGA [miR-21] the c-JUN activation (phospho-c-jun) was “transiently induced”, the “cell death on exogenous addition of miRNA” value (from here on “cell death”) [1] was “induced pronounced cell death” and the JNK activation (phospho-JNK) was “transiently induced”. The p38 activity (phospho-p38) was “no significant change”, the “cell death” value [2] was “significantly blunted” and the “cell death” value ([2]; listed as miR21) was “does not completely rescue”.
